Reference: patent publication US20260317344A1, “EGFR INHIBITORS FOR TREATING DISEASE” (BLOSSOMHILL THERAPEUTICS, INC., priority 2023, published 2026)
Read-outs that look alike come from different tables or passages of the source.

What was measured:
EGFR (D746-750/C797S) = EGFR (D746-750/C797S) (Homo sapiens, UniProt P00533, C797S/DEL746-750); experiment: HotSpot radiometric kinase assay, inhibition of EGFR 746-750/C797S mutant; assay type: biochemical; conditions: 33P ATP, room temperature, 120 m
Experimental: (§1) Biochemical Assays for inhibition of wild-type and mutant EGFRs
(§2) Briefly, specific kinase/substrate pairs along with required cofactors were prepared in reaction buffer; 20 mM HEPES pH 7.5, 10 mM […], 1 mM EGTA, 0.02% Brij35, 0.02 mg/ml BSA, 0.1 mM Na3VO4, 2 mM DTT, 1% DMSO. Compounds were delivered into the reaction, followed ~20 minutes later by addition of a mixture of ATP (Sigma, St. Louis MO) and ^33P ATP (Perkin Elmer, Waltham MA) to a final concentration of […]. Reactions were carried out at room temperature for 120 m, followed by spotting of the reactions onto P81 ion exchange filter paper (Whatman Inc., Piscataway, NJ). Unbound phosphate was removed by extensive washing of filters in 0.75% phosphoric acid. […] IC50 values and curve fits were obtained using Prism (GraphPad Software).

EGFR (L858R/T790M/C797S) = EGFR (L858R/T790M/C797S) (Homo sapiens, UniProt P00533, C797S/L858R/T790M); experiment: HotSpot radiometric kinase assay, inhibition of EGFR L858R/T790M/C797S mutant; assay type: biochemical; conditions: 33P ATP, room temperature, 120 m
Experimental: as §1, §2

EGFR (D746-750) = EGFR (D746-750) (Homo sapiens, UniProt P00533, DEL746-750); experiment: HotSpot radiometric kinase assay, inhibition of EGFR 746-750 mutant; assay type: biochemical; conditions: 33P ATP, room temperature, 120 m
Experimental: as §1, §2

EGFR (D770_N771insNPG) = EGFR (D770_N771insNPG) (Homo sapiens, UniProt P00533, INS770NPG); experiment: HotSpot radiometric kinase assay, inhibition of EGFR (D770_N771insNPG) mutant; assay type: biochemical; conditions: 33P ATP, room temperature, 120 m
Experimental: as §1, §2

[1] = target: T1, pEGFR, A431 cells (wildtype EGFR) (Homo sapiens, UniProt P00533); experiment: Cellular EGFR phosphorylation assay (LANCE Ultra TR-FRET) in A431 cells; assay type: cell-based; conditions: 4 hours at 37° C., 40 ng/mL EGF for the final 10 minutes, read-out: A431 pEGFR IC50
T1 construct: pEGFR (Tyr1068) TR-FRET
Experimental: (§3) Cellular EGFR Phosphorylation Assays
(§4) EGFR phosphorylation assays were conducted in NSCLC cells with EGFR activation mutations. PC-9 cells (purchased from Aldrich-Sigma) carry a Glu746-Ala750 deletion (d746-750) mutation in exon 19 of the EGFR gene and NCI-H1975 cells (purchased from ATCC) carry both L858R activation mutation and T790M gatekeeper mutation in the EGFR gene. A431 cells (purchased from ATCC) with amplification of wildtype EGFR, derived from epidermoid carcinoma, were used to measure the activity against wildtype EGFR. All cells were seeded in 96-well plates. For PC-9 and NCI-H1975 cells, 50 thousand cells were seeded per well. For A431 cells, 30 thousand cells were seeded per well. The next day, cells were exposed to compound for 4 hours at 37° C. and 5% CO2. Compounds were diluted in DMSO and added to cells in a 9-dose, 3-fold dilution, titration curve using TECAN d300e liquid dispenser. For A431 cells, 40 ng/mL of EGF was added to the media for the final 10 minutes of incubation. EGFR phosphorylation was measured using phospho-EGFR (Try1068) LANCE Ultra TR-FRET Detection Kit (TRF4015M) from PerkinElmer according to manufacturer's instructions. In brief, cells were lysed with 40 μL of lysis buffer plus 1× Halt protease and phosphatase inhibitor cocktail (Thermo 78441) and by incubation at room temperature for 1 h on a microplate shaker (350 rpm). 15 μ L of cell lysate was transferred to 384-well white plate and 5 μL of Europium- and ULight-labeled antibodies diluted in 1× detection buffer was added to each well. After 4-6 hours of incubation at room temperature, plates were then read on a TECAN Sparks multimode microplate reader. Data was analyzed using GraphPad Prism 9 (GraphPad Software, San Diego, CA) to obtain IC50 values.

HCC827 cells = experiment: 5-Day CellTiter Glo (CTG) cell proliferation assay, HCC827; assay type: cell-based; conditions: Homo sapiens, read-out: HCC827 IC50
Experimental: (§5) 5-Day CellTiter Glo (CTG) Cell Proliferation Assays (PC9, H1975, H827)
(§6) Cell proliferation assays were carried out in NSCLC cells with EGFR activation mutations. Both PC-9 cells and HCC827 cells (purchased from DSMZ) carry a Glu746-Ala750 deletion (d746-750) mutation in exon 19 of the EGFR gene and NCI-H1975 cells carry both L858R activation mutation and T790M gatekeeper mutation in the EGFR gene. One thousand PC-9, NCI-H1975 or HCC827 cells/100 μL per well were seeded in 96-well black plate with transparent bottom and then treated with indicated compounds in a 9-dose dilution series dispensed using TECAN d300e liquid dispenser. Cells were incubated with compounds for 120 hours at 37° C. and 5% CO2. Cell proliferation was measured using CellTiter-Glo 2.0 luciferase-based ATP detection assay (Promega, Madison, WI) at […] per well following the manufacturer's protocol. Plates were then read on a TECAN Sparks multimode microplate reader. Data was analyzed using GraphPad Prism 9 (GraphPad Software, San Diego, CA) to obtain IC50 values.

[2] = tested on: BaF3 cells with engineered EGFR L858R/T790M/C797S; experiment: 3-Day CellTiter Glo (CTG) cell proliferation assay, BaF3 EGFR L858R/T790M/C797S; assay type: cell-based; conditions: Mus musculus, 3-day CTG proliferation, 72 hours
Experimental: 3-DAY CellTiter Glo (CTG) Cell Proliferation Assays (BaF3 Cell Lines)
Cell proliferation assays were carried out in BaF3 cells engineered with EGFR mutations. BaF3 cells with engineered EGFR L858R/T790M/C797S, EGFR L858R/C797S, or EGFR d746-750/T790M transgene, one thousand cells/50 μL per well were seeded in white 384-well plate, followed by treatment with indicated compounds in a 9-dose dilution series using TECAN d300e liquid dispenser. Cells were incubated with compounds for 72 hours at 37° C. and 5% CO2. Cell proliferation was measured using CellTiter-Gbo 2.0 luciferase-based ATP detection assay (Promega, Madison, WI) at 18 μL per well following the manufacturer's protocol. Plates were then read on a TECAN Sparks multimode microplate reader. Data was analyzed using GraphPad Prism 9 (GraphiPad Software, San Diego, CA) to obtain IC50 values.

PC-9 cells = experiment: 5-Day CellTiter Glo (CTG) cell proliferation assay, PC-9; assay type: cell-based; conditions: Homo sapiens, read-out: PC-9 IC50
Experimental: as §5, §6

NCI-H1975 cells = experiment: 5-Day CellTiter Glo (CTG) cell proliferation assay, NCI-H1975; assay type: cell-based; conditions: Homo sapiens, read-out: H1975 IC50
Experimental: as §5, §6

[3] = target: T2, pEGFR, PC-9 cells (d746-750 EGFR) (Homo sapiens, UniProt P00533, DEL746-750); experiment: Cellular EGFR phosphorylation assay (LANCE Ultra TR-FRET) in PC-9 cells; assay type: cell-based; conditions: 4 hours at 37° C., read-out: PC-9 pEGFR IC50
T2 construct: pEGFR (Tyr1068) TR-FRET
Experimental: as §3, §4

[4] = target: T3, pEGFR, NCI-H1975 cells (L858R/T790M EGFR) (Homo sapiens, UniProt P00533, L858R/T790M); experiment: Cellular EGFR phosphorylation assay (LANCE Ultra TR-FRET) in NCI-H1975 cells; assay type: cell-based; conditions: 4 hours at 37° C., read-out: H1975 pEGFR IC50
T3 construct: pEGFR (Tyr1068) TR-FRET
Experimental: as §3, §4

[5] = HCC827 cells (d746-750 EGFR), 5-day CTG proliferation, 120 hours
[6] = PC-9 cells (d746-750 EGFR), 5-day CTG proliferation, 120 hours
[7] = NCI-H1975 cells (L858R/T790M EGFR), 5-day CTG proliferation, 120 hours

Sequence of EGFR (D770_N771insNPG) (P00533 with tags, fused parts or gaps INS770NPG limits assumed): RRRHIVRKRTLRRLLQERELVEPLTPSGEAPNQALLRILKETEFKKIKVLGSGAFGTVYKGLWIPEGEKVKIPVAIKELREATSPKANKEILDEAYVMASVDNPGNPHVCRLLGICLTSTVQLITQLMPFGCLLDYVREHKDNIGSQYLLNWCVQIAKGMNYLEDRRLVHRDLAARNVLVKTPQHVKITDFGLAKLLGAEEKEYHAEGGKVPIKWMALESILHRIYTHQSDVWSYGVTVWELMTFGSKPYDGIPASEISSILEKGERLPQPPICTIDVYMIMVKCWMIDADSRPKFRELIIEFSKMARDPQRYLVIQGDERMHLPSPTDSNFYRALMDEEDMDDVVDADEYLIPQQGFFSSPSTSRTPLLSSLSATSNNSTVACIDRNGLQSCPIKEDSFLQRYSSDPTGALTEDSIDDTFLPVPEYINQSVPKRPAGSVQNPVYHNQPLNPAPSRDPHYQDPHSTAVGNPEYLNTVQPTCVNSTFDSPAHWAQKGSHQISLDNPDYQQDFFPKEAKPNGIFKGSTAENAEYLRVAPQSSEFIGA
Sequence of EGFR (L858R/T790M/C797S) (P00533 25-1210 T790M/C797S/L858R): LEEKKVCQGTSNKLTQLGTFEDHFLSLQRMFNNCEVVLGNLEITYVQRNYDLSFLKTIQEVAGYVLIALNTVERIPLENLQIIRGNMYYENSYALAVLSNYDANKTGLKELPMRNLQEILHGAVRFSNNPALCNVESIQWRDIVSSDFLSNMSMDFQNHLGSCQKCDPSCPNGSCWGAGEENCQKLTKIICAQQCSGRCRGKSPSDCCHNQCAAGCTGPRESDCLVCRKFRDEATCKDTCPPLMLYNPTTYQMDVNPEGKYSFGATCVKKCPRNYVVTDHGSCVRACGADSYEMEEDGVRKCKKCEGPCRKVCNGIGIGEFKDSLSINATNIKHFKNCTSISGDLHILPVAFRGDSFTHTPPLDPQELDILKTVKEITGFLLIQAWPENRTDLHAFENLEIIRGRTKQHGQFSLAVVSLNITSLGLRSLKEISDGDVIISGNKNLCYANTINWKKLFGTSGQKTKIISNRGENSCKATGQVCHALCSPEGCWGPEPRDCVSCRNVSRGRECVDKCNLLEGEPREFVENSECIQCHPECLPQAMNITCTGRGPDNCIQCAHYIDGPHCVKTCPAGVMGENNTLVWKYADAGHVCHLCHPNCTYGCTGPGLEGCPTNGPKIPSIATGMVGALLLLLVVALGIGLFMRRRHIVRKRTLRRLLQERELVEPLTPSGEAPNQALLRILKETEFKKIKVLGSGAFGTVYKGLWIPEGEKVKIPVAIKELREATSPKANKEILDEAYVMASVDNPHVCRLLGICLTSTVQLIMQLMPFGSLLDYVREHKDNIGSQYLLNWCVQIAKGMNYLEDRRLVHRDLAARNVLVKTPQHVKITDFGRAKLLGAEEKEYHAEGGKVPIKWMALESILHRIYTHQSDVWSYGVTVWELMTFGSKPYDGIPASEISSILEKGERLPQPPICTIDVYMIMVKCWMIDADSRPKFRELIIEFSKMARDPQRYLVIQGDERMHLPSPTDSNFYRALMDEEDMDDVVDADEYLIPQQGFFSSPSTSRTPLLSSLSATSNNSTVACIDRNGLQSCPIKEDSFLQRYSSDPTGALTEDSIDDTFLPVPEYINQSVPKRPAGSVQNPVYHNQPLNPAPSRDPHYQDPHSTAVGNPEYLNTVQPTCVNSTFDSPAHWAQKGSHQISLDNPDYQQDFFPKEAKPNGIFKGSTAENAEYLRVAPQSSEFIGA
T3 sequence (P00533 25-1210 T790M/L858R): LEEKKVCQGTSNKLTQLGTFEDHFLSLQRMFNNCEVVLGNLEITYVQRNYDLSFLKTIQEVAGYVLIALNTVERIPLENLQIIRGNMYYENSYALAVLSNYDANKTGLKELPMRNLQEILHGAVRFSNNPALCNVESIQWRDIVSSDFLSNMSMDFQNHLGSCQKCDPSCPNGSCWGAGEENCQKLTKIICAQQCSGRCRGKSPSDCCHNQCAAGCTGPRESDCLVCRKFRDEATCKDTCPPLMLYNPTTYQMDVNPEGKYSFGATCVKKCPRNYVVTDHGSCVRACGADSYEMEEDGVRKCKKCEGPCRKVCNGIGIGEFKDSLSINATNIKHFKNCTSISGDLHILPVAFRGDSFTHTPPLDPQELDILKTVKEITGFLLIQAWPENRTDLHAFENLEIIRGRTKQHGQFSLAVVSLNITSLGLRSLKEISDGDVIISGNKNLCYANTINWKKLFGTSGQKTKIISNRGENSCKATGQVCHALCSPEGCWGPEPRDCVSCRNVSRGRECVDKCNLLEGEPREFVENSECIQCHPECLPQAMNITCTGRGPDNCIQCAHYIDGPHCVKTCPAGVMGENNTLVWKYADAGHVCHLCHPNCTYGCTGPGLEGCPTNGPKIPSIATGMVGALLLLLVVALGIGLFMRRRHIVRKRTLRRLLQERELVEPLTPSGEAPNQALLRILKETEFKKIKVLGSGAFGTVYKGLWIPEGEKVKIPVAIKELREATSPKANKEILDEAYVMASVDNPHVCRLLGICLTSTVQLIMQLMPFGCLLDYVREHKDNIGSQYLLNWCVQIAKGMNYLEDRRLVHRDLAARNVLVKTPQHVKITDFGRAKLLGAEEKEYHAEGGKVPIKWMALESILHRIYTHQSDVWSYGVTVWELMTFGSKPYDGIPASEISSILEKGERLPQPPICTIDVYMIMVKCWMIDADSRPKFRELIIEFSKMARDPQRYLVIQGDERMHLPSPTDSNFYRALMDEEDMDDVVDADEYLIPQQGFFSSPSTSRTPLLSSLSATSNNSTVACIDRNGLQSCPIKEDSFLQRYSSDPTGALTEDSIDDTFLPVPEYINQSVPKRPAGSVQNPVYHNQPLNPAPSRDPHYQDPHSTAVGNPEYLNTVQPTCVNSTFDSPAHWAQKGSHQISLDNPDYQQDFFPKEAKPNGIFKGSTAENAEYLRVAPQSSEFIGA
T1 sequence (P00533 25-1210): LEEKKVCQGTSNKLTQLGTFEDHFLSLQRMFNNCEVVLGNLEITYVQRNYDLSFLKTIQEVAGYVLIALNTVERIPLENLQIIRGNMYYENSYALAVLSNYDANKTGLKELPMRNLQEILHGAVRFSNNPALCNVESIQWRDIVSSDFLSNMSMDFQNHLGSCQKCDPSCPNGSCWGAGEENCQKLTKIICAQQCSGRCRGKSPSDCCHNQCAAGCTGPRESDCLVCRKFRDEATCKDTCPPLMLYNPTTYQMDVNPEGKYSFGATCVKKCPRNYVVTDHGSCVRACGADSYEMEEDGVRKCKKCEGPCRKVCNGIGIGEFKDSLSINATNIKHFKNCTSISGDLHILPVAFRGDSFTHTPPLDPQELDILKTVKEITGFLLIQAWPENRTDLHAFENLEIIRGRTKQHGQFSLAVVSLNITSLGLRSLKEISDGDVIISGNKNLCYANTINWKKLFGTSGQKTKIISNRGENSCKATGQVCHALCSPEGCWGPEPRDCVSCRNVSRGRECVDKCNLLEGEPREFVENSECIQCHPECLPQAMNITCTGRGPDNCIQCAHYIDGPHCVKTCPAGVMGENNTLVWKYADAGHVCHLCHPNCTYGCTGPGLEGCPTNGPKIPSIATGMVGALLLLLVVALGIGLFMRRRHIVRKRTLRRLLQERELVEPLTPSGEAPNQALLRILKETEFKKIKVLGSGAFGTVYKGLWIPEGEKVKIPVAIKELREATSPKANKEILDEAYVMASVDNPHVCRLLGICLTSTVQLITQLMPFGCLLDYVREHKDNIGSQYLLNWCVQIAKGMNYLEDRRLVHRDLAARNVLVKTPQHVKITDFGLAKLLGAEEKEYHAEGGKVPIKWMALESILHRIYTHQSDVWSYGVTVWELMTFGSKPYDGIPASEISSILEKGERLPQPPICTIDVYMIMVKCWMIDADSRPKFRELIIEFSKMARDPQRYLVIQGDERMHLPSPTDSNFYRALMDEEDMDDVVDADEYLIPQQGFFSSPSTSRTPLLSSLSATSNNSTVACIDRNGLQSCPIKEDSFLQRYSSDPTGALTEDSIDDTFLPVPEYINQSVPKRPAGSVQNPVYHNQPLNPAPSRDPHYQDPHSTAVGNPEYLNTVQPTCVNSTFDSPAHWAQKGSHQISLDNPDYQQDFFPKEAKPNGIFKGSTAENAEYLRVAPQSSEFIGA

IC50 (EGFR (D746-750/C797S)) | IC50 (EGFR (L858R/T790M/C797S)) | IC50 (EGFR (D746-750)) | IC50 (EGFR (D770_N771insNPG)) | IC50 [1] | IC50 (HCC827 cells; [5]) | IC50 (PC-9 cells; [6]) | IC50 (NCI-H1975 cells; [7]) | IC50 [3] | IC50 [4] | Compound | also measured
0.79 nM | 0.71 nM | 0.31 nM | 1.62 nM |  |  |  |  |  |  | CCOc1nn(CCO)c2c1/C=C/c1n[nH]c3c(C)nc(cc13)-c1cnn(C)c1O[C@H](C)CN(CC)C2 [Ex. 37, 2-[(10R,17E)-16-ethoxy-12-ethyl-8,10,20-trimethyl-2,8,10,11,12,13-hexahydro-14H-5,3-(azenometheno)tripyrazolo[3,4-f:3′,4′-j:4″,3″-n][1,4]oxazacyclopentadecin-14-yl]ethan-1-ol] | 
0.83 nM | 0.56 nM | 0.29 nM | 0.35 nM |  |  |  |  |  |  | Cc1nn(C)c2c1-c1cc3c(n[nH]c3cn1)/C=C/c1c(OCC#N)nn(CCO)c1CN(C)C[C@@H](C)O2 [Ex. 42, {[(10R,17E)-14-(2-hydroxyethyl)-6,8,10,12-tetramethyl-2,10,11,12,13,14-hexahydro-8H-5,3-(azenometheno)tripyrazolo[3,4-f:3′,4′-j:4″,3″-n][1,4]oxazacyclopentadecin-16-yl]oxy}acetonitrile] | 
0.23 nM | 0.16 nM | 0.09 nM | 0.18 nM |  |  |  |  |  |  | Cc1nn(C)c2c1-c1cc3c(n[nH]c3cn1)/C=C/c1c(OCC#N)nn(CCO)c1CN1CCC[C@@H]1CO2 [Ex. 43, {[(8aR,19E)-3-(2-hydroxyethyl)-11,13-dimethyl-3,4,7,8,8a,9,11,17-octahydro-6H-14,16-(azenometheno)tripyrazolo[3,4-f:3′,4′-j:4″,3″-n]pyrrolo[2,1-c][1,4]oxazacyclopentadecin-1-yl]oxy}acetonitrile] | 
0.4 nM | 0.23 nM | 0.15 nM | 0.36 nM |  |  |  |  |  |  | Cc1nn([C@@H](C)CO)c2c1/C=C/c1n[nH]c3cnc(cc13)-c1c(C)nn(C)c1O[C@@H](C)CN(C)C2 [Ex. 46, (2S)-2-[(10S,17E)-6,8,10,12,16-pentamethyl-2,8,10,11,12,13-hexahydro-14H-5,3-(azenometheno)tripyrazolo[3,4-f:3′,4′-j:4″,3″-n][1,4]oxazacyclopentadecin-14-yl]propan-1-ol] | 
 |  |  |  | 564 nM | 0.24 nM | 23.7 nM | 5.53 nM | 72.6 nM |  | Cc1c2c(nn1C)CN(C)CCOc1c(cnn1C)-c1cc3c(n[nH]c3cn1)/C=C/2 [Ex. 73, (17E)-8,12,15,16-tetramethyl-2,10,11,12,13,15-hexahydro-8H-5,3-(azenometheno)tripyrazolo[3,4-f:3′,4′-j:4″,3″-n][1,4]oxazacyclopentadecine] | IC50 [2]: 35.8 nM
 |  |  |  | 5.88 nM |  |  |  | 0.97 nM | 1.82 nM | [2H]C([2H])([2H])C([2H])([2H])Oc1nn([C@@H](C)CO)c2c1/C=C/c1n[nH]c3cnc(cc13)-c1c(C)nn(C)c1O[C@@H](C)CN(C)C2 [Ex. 87, (2S)-2-[(10S,17E)-16-[(^2H5)ethyloxy]-6,8,10,12-tetramethyl-2,8,10,11,12,13-hexahydro-14H-5,3-(azenometheno)tripyrazolo[3,4-f:3′,4′-j:4″,3″-n][1,4]oxazacyclopentadecin-14-yl]propan-1-ol] | IC50 (HCC827 cells; HCC827, 120 h): 0.23 nM; IC50 (PC-9 cells; PC-9, 120 h): 0.36 nM; IC50 (NCI-H1975 cells; NCI-H1975, 120 h): 0.57 nM
 |  |  |  | 11.3 nM | 0.34 nM | 0.59 nM | 20.4 nM |  |  | CCOc1nn([C@@H](C)CO)c2c1/C=C/c1n[nH]c3c(C)nc(cc13)-c1c(COC)nn(C)c1O[C@@H](C)CN(CC)C2 [Ex. 147, (2S)-2-[(10S,17E)-16-ethoxy-12-ethyl-6-(methoxymethyl)-8,10,20-trimethyl-2,8,10,11,12,13-hexahydro-14H-5,3-(azenometheno)tripyrazolo[3,4-f:3′,4′-j:4″,3″-n][1,4]oxazacyclopentadecin-14-yl]propan-1-ol] | 
 |  |  |  | 40.5 nM | 0.29 nM | 0.76 nM | 1.76 nM | 1.94 nM | 2.9 nM | CCN1Cc2c(c(OCC#N)nn2[C@@H](C)CO)/C=C/c2n[nH]c3c(C)nc(cc23)-c2c(C)nn(C)c2O[C@@H](C)C1 [Ex. 148, {[(10S,17E)-12-ethyl-14-[(2S)-1-hydroxypropan-2-yl]-6,8,10,20-tetramethyl-2,10,11,12,13,14-hexahydro-8H-5,3-(azenometheno)tripyrazolo[3,4-f:3′,4′-j:4″,3″-n][1,4]oxazacyclopentadecin-16-yl]oxy}acetonitrile] | 
 |  |  |  | 26.6 nM | 0.42 nM | 1.55 nM | 4.89 nM | 2.04 nM | 3.24 nM | Cc1nn(C)c2c1-c1cc3c(n[nH]c3c(C)n1)/C=C/c1c(OCC#N)nn([C@@H](C)CO)c1CN(CC(F)F)C[C@H](C)O2 [Ex. 151, {[(10S,17E)-12-(2,2-difluoroethyl)-14-[(2S)-1-hydroxypropan-2-yl]-6,8,10,20-tetramethyl-2,10,11,12,13,14-hexahydro-8H-5,3-(azenometheno)tripyrazolo[3,4-f:3′,4′-j:4″,3″-n][1,4]oxazacyclopentadecin-16-yl]oxy}acetonitrile] | 
